Reference: patent US20240034729A9, “HETEROCYCLIC COMPOUND, INTERMEDIATE, PREPARATION METHOD THEREFOR AND APPLICATION THEREOF” (WUHAN LL SCIENCE AND TECHNOLOGY DEVELOPMENT CO., LTD., priority 2018, published 2024)

The compounds below were run against hP2X3 (human purinergic P2X receptor subtype 3) (Homo sapiens (Human), UniProt P56373) (assay: FLIPR calcium assay, hP2X3 expressed in HEK293 cells). Details: HEK293 cells expressing hP2X3, agonist BZ-ATP 2.5 μM; class symbols; read-out: P2X3 IC50.
Type: cell-based

Sequence of hP2X3 (human purinergic P2X receptor subtype 3) (P56373 whole entry): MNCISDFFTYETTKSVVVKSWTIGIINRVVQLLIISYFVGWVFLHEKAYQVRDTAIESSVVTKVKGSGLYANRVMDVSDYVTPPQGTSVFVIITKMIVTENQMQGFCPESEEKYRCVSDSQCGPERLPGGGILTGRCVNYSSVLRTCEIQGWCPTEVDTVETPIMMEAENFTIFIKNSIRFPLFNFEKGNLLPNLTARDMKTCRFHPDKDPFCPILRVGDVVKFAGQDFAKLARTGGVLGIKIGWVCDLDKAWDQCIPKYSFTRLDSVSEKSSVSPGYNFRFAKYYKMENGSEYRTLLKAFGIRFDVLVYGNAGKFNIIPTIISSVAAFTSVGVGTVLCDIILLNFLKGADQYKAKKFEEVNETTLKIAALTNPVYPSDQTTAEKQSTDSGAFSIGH

| IC50 [nM] | Structure (SMILES) |
| --- | --- |
| 200 to 5000 | COC(=O)N1CCO[C@@H](Cc2c(-c3c(F)cc(C(C)=O)cc3F)nc3cc(C)ccn23)C1 [Compound 14, methyl (S)-2-((2-(4-acetyl-2,6-difluorophenyl)-7-methylimidazo[1,2-a]pyridin-3-yl)methyl)morpholine-4-carboxylate] |
| 200 to 5000 | COC(=O)N1CCO[C@@H](Cc2c(-c3c(F)cc(N4CCN(C)CC4=O)cc3F)nc3cc(C)ccn23)C1 [Compound 45, methyl (S)-2-((2-(2,6-difluoro-4-(4-methyl-2-oxopiperazin-1-yl)phenyl)-7-methylimidazo[1,2-a]pyridin-3-yl)methyl) morpholine-4-carboxylate] |
| 200 to 5000 | COC(=O)N1CCO[C@@H](Cc2c(-c3c(F)cc(-c4nccn4C)cc3F)nc3cc(C)ccn23)C1 [Compound 9, methyl (S)-2-((2-(2,6-difluoro-4-(1-methyl-1H-imidazol-2-yl)phenyl)-7-methylimidazo[1,2-a]pyridin-3-yl)methyl)morpholine-4-carboxylate] |
| 200 to 5000 | COC(=O)N1CCO[C@@H](Cc2c(-c3c(F)cc(O)cc3F)nc3cc(C)ccn23)C1 [Compound 35, methyl (S)-2-((2-(2,6-difluoro-4-hydroxyphenyl)-7-methylimidazo[1,2-a]pyridin-3-yl)methyl)morpholine-4-carboxylate] |
| 200 to 5000 | CCC(=O)N1CCO[C@@H](Cc2c(-c3c(F)cc(-c4nc(C#N)co4)cc3F)nc3cc(C)ccn23)C1 [Compound 121] |
| 200 to 5000 | CNC(=O)c1cc(F)c(-c2cc3cc(C)ccc3n2C[C@H]2CN(C(=O)OC)CCO2)c(F)c1 [Compound 40, methyl (S)-2-((2-(2,6-difluoro-4-(methylcarbamoyl)phenyl)-5-methyl-1H-indol-1-yl)methyl)morpholine-4-carboxylate] |
| 200 to 5000 | COC(=O)N1CCO[C@@H](Cc2c(-c3c(F)cc(-c4nc(C5(O)CC5)co4)cc3F)nc3cc(C)ccn23)C1 [Compound 118] |
| 200 to 5000 | CNC(=O)c1cc(F)c(-c2nc3cc(C)ccn3c2CN2CCOCC2=O)c(F)c1 [Compound 47, 3,5-difluoro-N-methyl-4-(7-methyl-3-((3-oxo-4-morpholinyl)methyl)imidazo[1,2-a]pyridin-2-yl)benzamide] |

Same assay, conditions: read-out: P2X3 IC50

| Structure (SMILES) | IC50 [nM] |
| --- | --- |
| COC(=O)N1CCO[C@@H](Cc2c(-c3c(F)cc(-n4ccnc4)cc3F)nc3cc(F)ccn23)C1 [Compound 132] | < 10 |
| COC(=O)N1CCO[C@@H](Cc2c(-c3c(F)cc(-c4ccn(C(F)F)n4)cc3F)nc3cc(C)ccn23)C1 [Compound 102] | < 10 |
| COC(=O)N1CCO[C@@H](Cc2c(-c3c(F)cc(-c4nc(S(N)(=O)=O)c[nH]4)cc3F)nc3cc(C)ccn23)C1 [Compound 105] | < 10 |
| COC(=O)N1CCO[C@@H](Cc2c(-c3c(F)cc(NC(=O)C#CC(=O)O)cc3F)nc3cc(C)ccn23)C1 [Compound 88] | 10 to 50 |
| CNC(=O)c1cc(F)c(-c2nc3cc(C)ccn3c2CN2CCNCC2=O)c(F)c1 [Compound 48, (S)-2-((2-(2,6-difluoro-4-(methylcarbamoyl)phenyl)-7-methylimidazo[1,2-a]pyridin-3-yl)methyl)-2-carbonyl-piperazine] | 50 to 200 |
| COC(=O)N1CCO[C@@H](Cc2c(-c3c(F)cc(-c4nc(C#N)c[nH]4)cc3F)nc3cc(C)ccn23)C1 [Compound 38, methyl (S)-2-((2-(2,6-difluoro-4-(4-cyano-1H-imidazol-2-yl)phenyl)-7-methylimidazo[1,2-a]pyridin-3-yl)methyl)morpholine-4-carboxylate] | < 10 |
| CCC(=O)N1CCO[C@@H](Cc2c(-c3c(F)cc(NC(C)=O)cc3F)nc3cc(Cl)ccn23)C1 [Compound 154] | < 10 |
| COC(=O)N1CCO[C@@H](Cc2c(-c3c(F)cc(Nc4ccc(Cl)o4)cc3F)nc3cc(C)ccn23)C1 [Compound 72] | 50 to 200 |
| COC(=O)N1CCO[C@@H](Cc2c(-c3c(F)cc(-n4ccc(C(C)(C)O)n4)cc3F)nc3cc(C)ccn23)C1 [Compound 126, methyl (S)-2-((2-(2,6-difluoro-4-(3-(2-hydroxypropan-2-yl)-1H-pyrazol-1-yl)phenyl)-7-methylimidazo[1,2-a]pyridin-3-yl)methyl)morpholine-4-carboxylate] | 10 to 50 |
| CNS(=O)(=O)c1cc(F)c(-c2nc3cc(C)ccn3c2C[C@H]2CN(C(=O)OC)CCO2)c(F)c1 [Compound 43, methyl (S)-2-((2-(2,6-difluoro-4-(N-methylsulfamoyl)phenyl)-7-methylimidazo[1,2-a]pyridin-3-yl)methyl)morpholine-4-carboxylate] | < 10 |
| COC(=O)N1CCO[C@@H](Cc2c(-c3c(F)cc(NC(=O)CC(C)(C)C(=O)O)cc3F)nc3cc(C)ccn23)C1 [Compound 91] | < 10 |
| CNC(=O)c1cc(F)c(-c2nc3n(c2C[C@H]2CN(C(=O)OC)CCO2)CCC(C)C3)c(F)c1 (stereo partly drawn) [Compound 44, methyl (2S)-2-((2-(2,6-difluoro-4-(methylcarbamoyl)phenyl)-7-methyl-5,6,7,8-tetrahydroimidazo[1,2-a]pyridin-3-yl)methyl)morpholine-4-carboxylate] | < 10 |
| CCOC(=O)c1cn(-c2cc(F)c(-c3nc4cc(C)ccn4c3C[C@H]3CN(C(=O)OC)CCO3)c(F)c2)cn1 [Compound 51, methyl (S)-2-((2-(4-(4-(carbethoxy<ethoxycarbonyl>)-1H-imidazol-1-yl)-2,6-difluorophenyl)-7-methylimidazo[1,2-a]pyridin-3-yl)methyl)morpholine-4-carboxylate] | 50 to 200 |
| Cc1ccn2c(Cc3cc(C#N)ccn3)c(-c3c(F)cc(S(N)(=O)=O)cc3F)nc2c1 [Compound 186] | 65 |
| COC(=O)N1CCO[C@@H](Cc2c(-c3c(F)cc(NC(=O)CC(C)(C)O)cc3F)nc3cc(C)ccn23)C1 [Compound 90] | 10 to 50 |
| COC(=O)N1CCO[C@@H](Cc2c(-c3c(F)cc(-n4ccc(C#N)n4)cc3F)nc3cc(C)ccn23)C1 [Compound 124] | < 10 |
| COC(=O)N1CCO[C@@H](Cc2c(-c3c(F)cc(-c4nc(C(F)(F)F)c[nH]4)cc3F)nc3cc(C)ccn23)C1 [Compound 37, methyl (S)-2-((2-(2,6-difluoro-4-(4-trifluoromethyl-1H-imidazol-2-yl)phenyl)-7-methylimidazo[1,2-a]pyridin-3-yl)methyl)morpholine-4-carboxylate] | < 10 |
| CNC(=O)c1cc(F)c(-c2nc3cc(C)ncn3c2C[C@H]2CN(C(=O)OC)CCO2)c(F)c1 [Compound 42, methyl (S)-2-((2-(2,6-difluoro-4-(methylcarbamoyl)phenyl)-7-methylimidazo[1,2-c]pyrimidin-3-yl)methyl)morpholine-4-carboxylate] | < 10 |
| COC(=O)N1CCC[C@@H](Cc2c(-c3c(F)cc(S(N)(=O)=O)cc3F)nc3cc(C)ccn23)C1 [Compound 187] | 50 |
| CNC(=O)c1ccnc(Cc2c(-c3c(F)cc(S(N)(=O)=O)cc3F)nc3cc(C)ccn23)c1 [Compound 185] | 13 |
| COC(=O)N1CCO[C@@H](Cc2c(-c3c(F)cc(-n4cc(N)cn4)cc3F)nc3cc(C)ccn23)C1 [Compound 127, methyl (S)-2-((2-(4-(4-amino-1H-pyrazol-1-yl)-2,6-difluorophenyl)-7-methylimidazo[1,2-a]pyridin-3-yl)methyl)morpholine-4-carboxylate] | < 10 |
